pIC50: −log10 of the molar value.
Each molecule was assayed against human LTA4 hydrolase (Homo sapiens (Human), UniProt P09960) (assay: LTA4H Enzyme assay (cleavage of Arg-AMC)). Settings: LTA4H 1 nM, Arg-AMC 50 μM, room temperature 1 h.
Assay type: biochemical
Protocol: The compounds of the invention are assessed for the ability to interact with human LTA4 hydrolase in an enzymatic assay that measures the ability of the enzyme to cleave the peptide bond of arginyl-aminomethylcoumarin (Arg-AMC). LTA4H Enzyme (1 nM final), Arg-AMC substrate (50 μM final), and compound are combined in a reaction buffer (50 mM Tris-HCl (pH 7.5), 100 mM KCl, 0.5% bovine serum albumin) at room temperature for 1 h. The formation of product is assessed by measuring the fluorescence of aminomethylcoumarin product (excitation wavelength 380 nm/emission wavelength 460 nm).

Chain of human LTA4 hydrolase (P09960 whole entry): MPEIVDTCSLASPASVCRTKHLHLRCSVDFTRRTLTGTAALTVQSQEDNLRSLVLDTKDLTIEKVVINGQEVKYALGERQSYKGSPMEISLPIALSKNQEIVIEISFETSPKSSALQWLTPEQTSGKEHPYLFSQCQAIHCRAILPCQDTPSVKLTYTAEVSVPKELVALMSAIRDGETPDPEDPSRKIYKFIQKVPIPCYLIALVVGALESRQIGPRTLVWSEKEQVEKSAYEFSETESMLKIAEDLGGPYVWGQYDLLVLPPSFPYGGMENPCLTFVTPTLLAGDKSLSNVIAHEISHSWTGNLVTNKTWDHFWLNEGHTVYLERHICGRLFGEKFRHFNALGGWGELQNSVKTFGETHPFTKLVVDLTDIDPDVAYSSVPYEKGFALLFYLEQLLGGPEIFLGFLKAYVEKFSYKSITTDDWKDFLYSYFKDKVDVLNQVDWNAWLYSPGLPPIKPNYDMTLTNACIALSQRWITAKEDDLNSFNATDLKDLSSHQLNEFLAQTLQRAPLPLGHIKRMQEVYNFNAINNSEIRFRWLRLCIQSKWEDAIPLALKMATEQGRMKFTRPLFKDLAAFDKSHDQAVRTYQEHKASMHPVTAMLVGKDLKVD

In order of rising pIC50:
1. c1ccc2c(c1)OC[C@@H](c1ccc(CN3CCOCC3)cc1)O2 [Example 199, 4-{4-[(2R)-2,3-dihydro-1,4-benzodioxin-2-yl]benzyl}morpholine]  7.40
2. CC(=O)N1CCC(N(C)Cc2ccc([C@H]3COc4ccccc4O3)cc2)CC1 [Example 14]  8.63
3. c1ccc2c(c1)OCC(c1ccc(CN3CCn4cnnc4C3)cc1)O2 (centres unmarked) [Example 16, 7-[4-(2,3-dihydro-1,4-benzodioxin-2-yl)benzyl]-5,6,7,8-tetrahydro[1,2,4,]triazolo[4,3-a]pyrazine]  8.94
4. c1cnc2c(c1)OCC(c1ccc(CN3CCCC3)cc1)O2 (centres unmarked) [Example 15, 3-[4-(pyrrolidin-1-ylmethyl)phenyl]-2,3-dihydro[1,4]dioxin[2,3-b]pyridine]  9.11
5. O=S1(=O)CCN(Cc2ccc(C3COc4cccnc4O3)cc2)CC1 (centres unmarked) [Example 17, 3-{4-[(1,1-dioxidothiomorpholin-4-yl)methyl]phenyl}-2,3-dihydro[1,4]dioxino[2,3-b]pyridine]  9.14

What follows are molecules tested on synthesis of LTB4 in human whole blood (assay: human whole blood (HWB) assay, LTB4 production inhibition). Settings: calcimycin 20 μM.
Assay type: cell-based
Protocol: The compounds of the invention are additionally tested in a human whole blood (HWB) assay to determine their ability to inhibit the synthesis of LTB4 in a cellular system. Compounds are combined with heparinized human whole blood and incubated for 15 minutes at 37° C. Calcimycin (20 μM final, prepared in phosphate-buffered saline, pH 7.4) is then added and the mixture is incubated for another 30 minutes at 37° C. The samples are centrifuged for 5 min at low speed (1500×g) and the plasma layer is removed. Plasma LTB4 concentrations are then measured using an antibody-based homogenous time-resolved fluorescence method (CisBio, Bedford, Mass.). In general, the preferred potency range (IC50) of compounds in the HWB assay is between 10 nM to 10 μM, the more preferred potency range is 10 nM to 1 μM, and the most preferred potency range is 10 nM to 100 nM.

In order of falling pIC50:
1. CS(=O)(=O)NC1CCN(Cc2ccc([C@H]3COc4cccnc4O3)cc2)CC1 [Example 190, N-(1-{4-[(3S)-2,3-dihydro[1,4]dioxino[2,3-b]pyridin-3-yl]benzyl}piperidin-4-yl)methanesulfonamide]  7.58
2. OC1CCN(Cc2ccc([C@H]3COc4cccnc4O3)cc2)CC1 [Example 186, 1-{4-[(3S)-2,3-dihydro[1,4]dioxino[2,3-b]pyridin-3-yl]benzyl}piperidin-4-ol]  7.44
3. c1cnc2c(c1)OC[C@H](c1ccc(CNC3CCC3)cc1)O2 [Example 173, N-{4-[(3S)-2,3-dihydro[1,4]dioxino[2,3-b]pyridin-3-yl]benzyl}cyclobutanamine]  7.14
4. NC(=O)NC1CCN(Cc2ccc([C@H]3COc4ccccc4O3)cc2)CC1 [Example 175, 1-(1-{4-[(2S)-2,3-dihydro-1,4-benzodioxin-2-yl]benzyl}piperidin-4-yl)urea]  7.14
5. c1ccc2c(c1)OCC(c1ccc(CN3CCCC3)cc1)O2 (centres unmarked) [Example 200, 1-[4-(2,3-dihydro-1,4-benzodioxin-2-yl)benzyl]pyrrolidine]  7.08
6. CC(C)(O)C(=O)NC1CCN(Cc2ccc([C@H]3COc4ccccc4O3)cc2)CC1 [Example 220, N-(1-{4-[(2S)-2,3-dihydro-1,4-benzodioxin-2-yl]benzyl}piperidin-4-yl)-2-hydroxy-2-methylpropanamide]  7.04
7. CC(=O)N1CCN(Cc2ccc([C@H]3COc4cccnc4O3)cc2)CC1 [Example 185, 1-(4-{4-[(3S)-2,3-dihydro[1,4]dioxino[2,3-b]pyridin-3-yl]benzyl}piperazin-1-yl)ethanone]  7.03
8. c1cnc2c(c1)OC[C@H](c1ccc(CN3CCOCC3)cc1)O2 [Example 204, (3S)-3-[4-(morpholin-4-ylmethyl)phenyl]-2,3-dihydro[1,4]dioxino[2,3-b]pyridine]  7.02
9. O=C(O)c1ccc(CC2CCN(Cc3ccc([C@H]4COc5cccnc5O4)cc3)CC2)cc1 [Example 234, 4-[(1-{4-[(3S)-2,3-dihydro[1,4]dioxino[2,3-b]pyridin-3-yl]benzyl}piperidin-4-yl)methyl]benzoic acid]  7.02
10. CCCCN(Cc1ccc(C(=O)O)cc1)Cc1ccc([C@H]2COc3ccccc3O2)cc1 [Example 237]  7.02
11. COCC(=O)NC1CCN(Cc2ccc([C@H]3COc4ccccc4O3)cc2)CC1 [Example 219, N-(1-{4-[(2S)-2,3-dihydro-1,4-benzodioxin-2-yl]benzyl}piperidin-4-yl)-2-methoxyacetamide]  6.83
12. O=C(O)C[C@@H]1CCCN(Cc2ccc([C@H]3COc4ccccc4O3)cc2)C1 [Example 183, [(3S)-1-{4-[(2S)-2,3-dihydro-1,4-benzodioxin-2-yl]benzyl)piperidin-3-yl]acetic acid]  6.82
13. CC(=O)N1CCC(N(C)Cc2ccc([C@H]3COc4ccccc4O3)cc2)CC1 [Example 14]  6.81
14. CC(=O)NC1CCN(Cc2ccc([C@H]3COc4ccccc4O3)cc2)CC1 [Example 178, N-(1-(4-[(2S)-2,3-dihydro-1,4-benzodioxin-2-yl]benzyl}piperidin-4-yl)acetamide]  6.80
15. O=C(O)[C@@H]1CCN(Cc2ccc([C@H]3COc4ccccc4O3)cc2)C1 [Example 214, (3R)-1-{4-[(2S)-2,3-dihydro-1,4-benzodioxin-2-yl]benzyl}pyrrolidine-3-carboxylic acid]  6.77
16. NC(=O)NC1CCN(Cc2ccc([C@H]3COc4cccnc4O3)cc2)CC1 [Example 187, 1-(1-{4-[(3S)-2,3-dihydro[1,4]dioxino[2,3-b]pyridin-3-yl]benzyl}piperidin-4-yl)urea]  6.75
17. CC(C)(C(=O)O)C1CCN(Cc2ccc([C@H]3COc4ccccc4O3)cc2)CC1 [Example 229, 2-(1-{4-[(2S)-2,3-dihydro-1,4-benzodioxin-2-yl]benzyl}piperidin-4-yl)-2-methylpropanoic acid]  6.54
18. CC(c1ccc([C@H]2COc3ccccc3O2)cc1)N1CCC(C(=O)O)CC1 (stereo partly drawn) [Example 227, 1-(1-{4-[(2S)-2,3-dihydro-1,4-benzodioxin-2-yl]phenyl}ethyl)piperidine-4-carboxylic acid]  6.51

— patent US11957671B2, “Benzodioxane modulators of leukotriene A4 hydrolase (LTA4H) for prevention and treatment of aging-associated diseases” (Alkahest, Inc., priority 2021, dated 2024)
